In ChEMBL document CHEMBL4002549, “Synthesis and evaluation of halogenated 12N-sulfonyl matrinic butanes as potential anti-coxsackievirus agents” (Eur J Med Chem, 2017):

Columns and labels:
[1] = system: Coxsackievirus B3; assay: Antiviral activity against Coxsackievirus B3 Nancy infected in African green monkey Vero cells assessed as inhibition of virus-induced cytopathic effect; format: functional; conditions: Enterovirus B
[2] = Acute toxicity in po dosed Kunming mouse measured for 7 days; format: organism-based; conditions: in vivo
[3] = Cytotoxicity against African green monkey Vero cells assessed as cytopathic effect after 48 hrs; format: cell-based; conditions: chlorocebus sabaeus, read-out: TC50
[4] = Selectivity index, ratio of TC50 for African green monkey Vero cells to IC50 for Coxsackievirus B3 Nancy infected in African green monkey Vero cells; format: toxicity; conditions: read-out: Selectivity Index
[5] = Antiviral activity against Coxsackievirus B2 Ohio-1 infected in African green monkey Vero cells assessed as inhibition of virus-induced cytopathic effect; format: functional, Coxsackievirus B2 (strain Ohio-1); conditions: Enterovirus B
[6] = Half life in Sprague-Dawley rat at 25 mg/kg, po; format: ADME, organism-based; conditions: in vivo
[7] = AUC (0 to infinity) in Sprague-Dawley rat at 25 mg/kg, po; format: ADME, organism-based; set-up: dose 25 mg/kg, route oral, time infinity; conditions: in vivo
[8] = system: Coxsackievirus B1; assay: Antiviral activity against Coxsackievirus B1 Conn 5 infected in African green monkey Vero cells assessed as inhibition of virus-induced cytopathic effect; format: functional; conditions: Enterovirus B, Conn 5, Vero
[9] = Antiviral activity against Coxsackievirus B6 Schmitt infected in African green monkey Vero cells assessed as inhibition of virus-induced cytopathic effect; format: functional, Coxsackievirus B6 (strain Schmitt); conditions: Enterovirus B
[10] = Tmax in Sprague-Dawley rat at 25 mg/kg, po; format: ADME, organism-based; conditions: in vivo
[11] = MRT in Sprague-Dawley rat at 25 mg/kg, po; format: ADME, organism-based; conditions: in vivo
[12] = AUC (0 to t) in Sprague-Dawley rat at 25 mg/kg, po; format: ADME, organism-based; conditions: in vivo
[13] = Selectivity index, ratio of TC50 for African green monkey Vero cells to IC50 for Coxsackievirus B6 Schmitt infected in African green monkey Vero cells; format: toxicity; conditions: read-out: Selectivity Index
[14] = Cmax in Sprague-Dawley rat at 25 mg/kg, po; format: ADME, organism-based; set-up: dose 25 mg/kg, route oral; conditions: in vivo
[15] = Selectivity index, ratio of TC50 for African green monkey Vero cells to IC50 for Coxsackievirus B4 JVB infected in African green monkey Vero cells; format: toxicity; conditions: read-out: Selectivity Index
[16] = Selectivity index, ratio of TC50 for African green monkey Vero cells to IC50 for Coxsackievirus B1 Conn 5 infected in African green monkey Vero cells; format: toxicity; conditions: read-out: Selectivity Index
[17] = system: Coxsackievirus B5; assay: Antiviral activity against Coxsackievirus B5 Faulkner infected in African green monkey Vero cells assessed as inhibition of virus-induced cytopathic effect; format: functional; conditions: Enterovirus B
[18] = Selectivity index, ratio of TC50 for African green monkey Vero cells to IC50 for Coxsackievirus B2 Ohio-1 infected in African green monkey Vero cells; format: toxicity; conditions: read-out: Selectivity Index
[19] = Selectivity index, ratio of TC50 for African green monkey Vero cells to IC50 for Coxsackievirus B5 Faulkner infected in African green monkey Vero cells; format: toxicity; conditions: read-out: Selectivity Index
[20] = system: Coxsackievirus B4; assay: Antiviral activity against Coxsackievirus B4 JVB infected in African green monkey Vero cells assessed as inhibition of virus-induced cytopathic effect; format: functional; conditions: Enterovirus B

Compound	IC50 [1] [µM]	CC50 at 48 h [3] [µM]	selectivity ratio [4]	other results
N#Cc1ccccc1S(=O)(=O)N1C[C@@H]2CCCN3CCC[C@@H]([C@H]23)[C@H]1CCCCCl	3.99	204	51.2	LD50 at 168 h [2]: 348 mg/kg
CCCC[C@@H]1[C@H]2CCCN3CCC[C@@H](CN1S(=O)(=O)c1ccc(N)cc1)[C@@H]23	23	82.9	3.6	–
N#Cc1cccc(S(=O)(=O)N2C[C@@H]3CCCN4CCC[C@@H]([C@H]34)[C@H]2CCF)c1	74.8	> 512	> 6.84	–
CCCC[C@@H]1[C@H]2CCCN3CCC[C@@H](CN1S(=O)(=O)c1cccc(C(=O)OC)c1)[C@@H]23	1.45	73.7	50.9	–
O=S(=O)(c1ccccc1C(F)(F)F)N1C[C@@H]2CCCN3CCC[C@@H]([C@H]23)[C@H]1CCCCF	16.8	229	13.6	–
CCCC[C@@H]1[C@H]2CCCN3CCC[C@@H](CN1S(=O)(=O)c1ccccc1C#N)[C@@H]23	1.04	116 to 200	111	IC50 [5]: 1.65 µM; half-life [6]: 2.48 h; AUC(0-inf) [7]: 31.8 µM·h; IC50 [8]: 1.52 µM; IC50 [9]: 2.06 µM; Tmax [10]: 1.33 h; MRT [11]: 4.05 h; LD50 at 168 h [2]: > 500 mg/kg; AUC(0-t) [12]: 30.9 µM·h; selectivity ratio [13]: 75.3; Cmax [14]: 3.07 µM; selectivity ratio [15]: > 38.9; selectivity ratio [16]: > 132; IC50 [17]: 0.69 µM; selectivity ratio [18]: > 121; selectivity ratio [19]: > 290; IC50 [20]: 5.14 µM
CCCC[C@@H]1[C@H]2CCCN3CCC[C@@H](CN1S(=O)(=O)c1ccc(NC(C)=O)cc1)[C@@H]23	2.47	96.2	38.9	–
O=S(=O)(c1ccc(C(F)(F)F)cc1)N1C[C@@H]2CCCN3CCC[C@@H]([C@H]23)[C@H]1CCF	13	358	27.6	–
NC(=O)c1ccc(S(=O)(=O)N2C[C@@H]3CCCN4CCC[C@@H]([C@H]34)[C@H]2CCO)cc1	16	> 491	> 30.7	–
NC(=O)c1ncn([C@@H]2O[C@H](CO)[C@@H](O)[C@H]2O)n1 [RIBAVIRIN]	379 to 695	6360 to 8200	11.8 to 16.8	IC50 [5]: > 500 µM; IC50 [8]: 2380 µM; IC50 [9]: 2090 µM; IC50 [17]: 3320 µM; IC50 [20]: > 500 µM
O=S(=O)(c1ccc(C(F)(F)F)cc1)N1C[C@@H]2CCCN3CCC[C@@H]([C@H]23)[C@H]1CCCCF	1.19	144	121	–
CC(=O)c1ccc(S(=O)(=O)N2C[C@@H]3CCCN4CCC[C@@H]([C@H]34)[C@H]2CCCl)cc1	12.2	251	20.5	–
O=S(=O)(c1cccc(C(F)(F)F)c1)N1C[C@@H]2CCCN3CCC[C@@H]([C@H]23)[C@H]1CCCCF	0.82	100	122	–
CCCC[C@@H]1[C@H]2CCCN3CCC[C@@H](CN1S(=O)(=O)c1ccccc1[N+](=O)[O-])[C@@H]23	2.47	228	92.5	–
C1CCN2C[C@@H]3CCCN4CCC[C@@H]([C@H]34)[C@H]2C1	57	652	11.4	–
N#Cc1cccc(S(=O)(=O)N2C[C@@H]3CCCN4CCC[C@@H]([C@H]34)[C@H]2CCCCCl)c1	8.39	204	24.3	–
O=S(=O)(c1ccccc1/C=N/O)N1C[C@@H]2CCCN3CCC[C@@H]([C@H]23)[C@H]1CCO	0.87	> 491	> 565	LD50 at 168 h [2]: < 500 mg/kg
N#Cc1ccccc1S(=O)(=O)N1C[C@@H]2CCCN3CCC[C@@H]([C@H]23)[C@H]1CCCl	1.85	> 452	> 244	LD50 at 168 h [2]: 348 mg/kg
N#Cc1cccc(S(=O)(=O)N2C[C@@H]3CCCN4CCC[C@@H]([C@H]34)[C@H]2CCCCF)c1	4.49	276	61.4	LD50 at 168 h [2]: 654 mg/kg
N#Cc1ccc(S(=O)(=O)N2C[C@@H]3CCCN4CCC[C@@H]([C@H]34)[C@H]2CCCCF)cc1	7.51	276	36.7	LD50 at 168 h [2]: 353 mg/kg
N#Cc1cccc(S(=O)(=O)N2C[C@@H]3CCCN4CCC[C@@H]([C@H]34)[C@H]2CCCl)c1	3.23	313	97	LD50 at 168 h [2]: 348 mg/kg
CCCC[C@@H]1[C@H]2CCCN3CCC[C@@H](CN1S(=O)(=O)c1ccc(C(=O)OC)cc1)[C@@H]23	14.2	367	25.1	–
CCCC[C@@H]1[C@H]2CCCN3CCC[C@@H](CN1S(=O)(=O)c1ccccc1C(=O)OC)[C@@H]23	7.24	320	44.1	–
CCCC[C@@H]1[C@H]2CCCN3CCC[C@@H](CN1S(=O)(=O)c1cccc(C#N)c1)[C@@H]23	1.14	96.2	84.3	–
CCCC[C@@H]1[C@H]2CCCN3CCC[C@@H](CN1S(=O)(=O)c1ccc(OC)cc1)[C@@H]23	5.8	96.2	16.6	–
N#Cc1ccccc1S(=O)(=O)N1C[C@@H]2CCCN3CCC[C@@H]([C@H]23)[C@H]1CCCCF	17.7	230	13	LD50 at 168 h [2]: 560 mg/kg
NC(=O)c1cccc(S(=O)(=O)N2C[C@@H]3CCCN4CCC[C@@H]([C@H]34)[C@H]2CCO)c1	9.25	> 491	> 53.1	–
